Measurements reported in US9849489B2, “Passive sampling devices” (priority 2015, dated 2017).
Where a name gives a salt, the structure may show the parent alone.

Key:
[1] = stability of 17 infused compounds in stored wristbands; assay type: physicochemical; details: for Overall RSD from entire study to 28 days: RSD across all time and temperature samples (−20° C., 4° C., 30° C.); for Beginning RSD from starting time point: RSD of concentration (ng/mL), extraction immediately following infusion
Protocol: In another example, the stability of wristbands infused with 17 compounds of varied physiochemistry was studied for various combinations of times and temperatures. […] Twelve wristbands underwent solvent extraction and analysis immediately following infusion. The remaining wristbands were divided into three groups and one group of wristbands was stored at each of −20° C., 4° C., and 30° C. Four wristbands from each temperature group underwent solvent extraction and analysis after 7 days and after 28 days. Four wristbands from the −20° C. and 4° C. temperature groups underwent solvent extraction and analysis after 14 days. This stability study is ongoing and will span 2 years.

[2] = stability of PAH-infused wristbands stored in PTFE bags at three temperatures; assay type: physicochemical; details: −20° C., 23° C. or 35° C., 72 hours
Protocol: Studies were carried out to examine whether PAHs would degrade after being sequestered by a wristband or whether field or handling conditions would influence exposure concentrations determined during wristband analysis.
The PAH-infused wristbands placed in PTFE storage bags were exposed to a temperature of −20° C. (in a walk-in freezer), 23° C. (ambient temperature), or 35° C. (in a drying oven) for 72 hours. Temperatures in each environment were monitored every 30 minutes using a temperature logger. Following the 72-hour exposure, the PAHs were extracted from the wristbands using solvent extraction and analyzed as described above.
In FIG. 14, the ratio of each analyte response divided by an internal standard response (for perylene-d12) are shown, because an error with surrogate recovery artificially inflated the variance across the three temperature exposures. […] The largest change among all PAH analytes was still less than 13% (fluorene-d10, freezer and ambient temperatures), so any changes in PAH concentrations were deemed negligible. Furthermore, potential changes in concentration would have been conserved since transportation was similar among wristbands within each temperature group. […] The standard deviations in FIG. 14 are the result of three replicates.

Structure (SMILES) | Overall RSD from entire study to 28 days [1] | Beginning RSD from starting time point [1] | largest change in analyte response ratio between temperature groups [2]
Brc1ccc(Oc2cc(Br)c(Br)cc2Br)c(Br)c1 [PBDE 99] | 43% | 46% | 
[2H]c1c([2H])c([2H])c(-c2c(Cl)c(Cl)c(Cl)c(Cl)c2Cl)c([2H])c1[2H] [PCB-116-d5, reference compound] | 44% | 45% | 
Brc1cc(Br)c(Oc2cc(Br)c(Br)cc2Br)c(Br)c1 [PBDE 154] | 51% | 53% | 
CCCSP(=O)(OCC)SCCC [prophos/ethoprophos] | 11% | 8% | 
O=S1(=O)OCC2C(CO1)C1(Cl)C(Cl)=C(Cl)C2(Cl)C1(Cl)Cl (stereo not drawn) [endosulfan sulfate] | 10% | 8% | 
[2H]c1c([2H])c2c([2H])c([2H])c3c([2H])c([2H])c([2H])c4c([2H])c([2H])c(c1[2H])c2c34 [pyrene-d10, reference compound] | 32% | 27% | 
Brc1ccc(Oc2ccc(Br)cc2Br)c(Br)c1 [PBDE 47] | 37% | 37% | 
[2H]c1c([2H])c([2H])c(-c2c(Cl)c(Cl)cc(Cl)c2Cl)c([2H])c1[2H] [PCB-65-d5, reference compound] | 37% | 35% | 
[2H]c1c([2H])c(Oc2ccc(Cl)cc2O)c(Cl)c([2H])c1Cl [triclosan-d3, reference compound] | 11% | 9% | 
[2H]c1c([2H])c(-c2cc(Cl)c(Cl)c(Cl)c2Cl)c([2H])c(Cl)c1Cl [PCB-156-d3, reference compound] | 50% | 53% | 
O=C1C2CC3C1C1(Cl)C(Cl)C4(Cl)C2C3C1(Cl)C4(Cl)Cl (stereo not drawn) [endrin Ketone] | 8% | 4% | 
[2H]c1c([2H])c([2H])c2c(c1[2H])C(=O)c1c([2H])c([2H])c([2H])c([2H])c1C2=O [Anthraquinone-d8, reference compound] | 14% | 8% | 
O=P(OC(CCl)CCl)(OC(CCl)CCl)OC(CCl)CCl [TCDPP, 1,3-dichloro-2-propyl phosphate] | 14% | 10% | 
CCOP(=S)(OCC)Oc1nc(Cl)c(Cl)cc1Cl [chlorpyrifos] | 24% | 19% | 
[2H]c1c([2H])c([2H])c2c(c1[2H])-c1c([2H])c([2H])c([2H])c([2H])c1C2([2H])[2H] [fluorene-d10, reference compound] | 16% | 14% | less than 13%
O=P(Oc1ccccc1)(Oc1ccccc1)Oc1ccccc1 [triphenyl phosphate] | 12% | 6% | 
